Bridge positions count the residues as written; N and C are the ends. Ends that are not written are not given here.
Key:
[1] = molecular target: T1, α1 I-domain (Homo sapiens, UniProt P56199); assay: Protein static adhesion assay: GST-tagged α1 I-domain adhesion to GLOGEN peptide coating; format: binding; settings: TC-I-15 200 μM, Obtustatin 20 μM, 6F1 10 μg/ml
T1 construct: GST-tagged αI-domains were tested in static adhesion assays; made in house
T1 sequence (P56199 161-360 limits assumed): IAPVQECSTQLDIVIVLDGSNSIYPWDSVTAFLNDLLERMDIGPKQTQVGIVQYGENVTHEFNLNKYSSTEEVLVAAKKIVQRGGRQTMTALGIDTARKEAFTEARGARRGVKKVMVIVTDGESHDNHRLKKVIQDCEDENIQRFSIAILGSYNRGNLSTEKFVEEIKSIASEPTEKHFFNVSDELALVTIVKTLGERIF
Description: Immulon 2HB 96-well plates were coated with 100 μl per well of peptides at 10 μg/ml in 0.01 M acetic acid. After 3 × 200 μl/well washes with washing buffer (1 mg/ml BSA in TBS), plates were blocked with 200 μl per well of filtered 3% BSA in TBS for 1 h at RT. αI-domains were added at 10 μg/ml in washing buffer for 1 h at RT with 5 mM MgCl2 and various concentrations of inhibitor as stated. After 3 × 200 μl/well washes with washing buffer, anti-GST detection antibody (GE Healthcare HRP conjugated anti-GST GERPN1236) were added for 1 h. Plates were washed 4× with 200 μl per well of washing buffer and bound protein was quantified using the Pierce™ TMB Substrate Kit. The colorimetric reaction was stopped with an equal volume of 1 M H2SO4 and A450 was read as above. Each condition was performed in triplicate and each experiment was repeated at least three times using different preparations of proteins. […]
Fig. 1 Inhibition of binding of recombinant αI-domains to peptide coatings. Adhesion of A, α1 I-domain to GLOGEN and B, α2 I-domain to GFOGER, was measured using anti-GST-HRP conjugated antibody as described in Materials and methods, and is shown as mean A450 ± SD. […]

[2] = molecular target: T2, α10β1 (UniProt O75578+P09055); assay: Cellular static adhesion assay: C2C12 cells expressing α10β1 on collagen peptides; format: cell-based, human α-subunit, mouse β-subunit; settings: C2C12-α10β1, GFOGER and GLOGEN coatings
T2 construct: expressed in transfected cells; host or cells: C2C12-α10 clone (gift, Xintela AB)
Description: (§1) C2C12s and HT1080s were grown in Lifetech DMEM/10% FBS and 1% penicillin/streptomycin. All cells were maintained under sterile conditions at 37 °C, 5% CO2. Cells were passaged using Trypsin/EDTA at 37 °C for 5 min and DMEM/10% FBS to quench the trypsin. C2C12 cells were transfected as described previously ([Tiger et al., 2001]). The C2C12-α10 clone was kindly made available by Dr. Evy Lundgren-Åkerlund, Xintela AB, Sweden.
(§2) Immulon 2HB 96-well plates were coated with 100 μl per well of peptides at 10 μg/ml in 0.01 M acetic acid overnight at 4 °C. After 3 × 200 μl/well PBS washes, plates were blocked with 200 μl/well filtered 3% BSA in PBS at RT for 1 h. Plates were washed, and 20,000 cells/well were added at room temperature (RT) for 1 h in serum-free media with 5 mM MgCl2 and varying concentrations of inhibitor. Unbound cells were washed away with 3× washes of 200 μl/well PBS. […] Cell number was quantified using 50 μl per well of the Roche cytotoxicity LDH kit. […] A490 was read in a SpectraMax 190 microplate reader (Molecular Devices). […]
(§3) PRISM 8.2.1 or later (GraphPad, San Diego, CA, USA), was used for all statistical tests. […] Inhibition curves were analysed using nonlinear regression comparing each data set with either a horizontal line model (null hypothesis, no inhibition) or three-parameter dose-response curve (inhibition occurs). […]

[3] = molecular target: T3, α11β1 (UniProt P09055+Q9UKX5); assay: Cellular static adhesion assay: C2C12 cells expressing α11β1 on collagen peptides; format: cell-based, human α-subunit, mouse β-subunit
T3 construct: expressed in transfected cells; host or cells: C2C12 mouse myofibroblasts, stably transfected
Description: as §1, §2, §3

[4] = test system: E318A mutation of α2β1; design: method as in Miller et al., 2009; settings: ref Miller et al., 2009; cited from earlier work
[5] = test system: platelets; design: method as in Miller et al., 2009; settings: RGD-containing ligands; ref Miller et al., 2009; cited from earlier work
[6] = molecular target: T4, α2 I-domain (Homo sapiens, UniProt P17301); assay: Protein static adhesion assay: GST-tagged α2 I-domain adhesion to GFOGER peptide coating; format: binding; settings: TC-I-15 200 μM, Obtustatin 20 μM
T4 construct: GST-tagged αI-domains were tested in static adhesion assays; made in house
T4 sequence (P17301 188-365 limits assumed): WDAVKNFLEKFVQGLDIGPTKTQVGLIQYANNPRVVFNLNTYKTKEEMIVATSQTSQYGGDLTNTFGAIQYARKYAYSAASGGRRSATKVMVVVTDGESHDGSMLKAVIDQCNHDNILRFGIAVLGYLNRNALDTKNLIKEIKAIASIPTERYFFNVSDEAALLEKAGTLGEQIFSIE
Description: Peptides contain a binding motif (such as GFOGER) flanked on either side by five GPP repeats and a GPC triplet at both the N- and C-termini. […] Peptides were dissolved at 5 mg/ml in 0.01 M acetic acid, heated to 70 °C for 5 min and allowed to cool overnight to enable triple helix folding. […]

[7] = molecular target: T5, α2β1 (UniProt P09055+P17301); assay: Cellular static adhesion assay: C2C12 cells expressing α2β1 on collagen peptides; format: cell-based, human α-subunit, mouse β-subunit; settings: C2C12-α2β1, GFOGER and GLOGEN coatings
T5 construct: expressed in transfected cells; host or cells: C2C12 mouse myofibroblasts, stably transfected
Source text: (§4) (For interpretation of the references to colour in this figure legend, the reader is referred to the web version of this article.)

[8] = molecular target: T6, α2β1 (Homo sapiens, UniProt P05556+P17301); assay: Cellular static adhesion assay: HT1080 cells (express α2β1) on GFOGER; format: cell-based; settings: GFOGER coating, dose curve
T6 construct: endogenous in cells; host or cells: HT1080 human fibrosarcoma cells
Source text: as §4

[9] = test system: Lewis lung carcinoma; design: method as in Marcinkiewicz et al., 2003; Brown et al., 2008; settings: mouse Lewis lung carcinoma model; ref Marcinkiewicz et al., 2003; Brown et al., 2008; cited from earlier work
[10] = test system: melanoma; design: method as in Marcinkiewicz et al., 2003; Brown et al., 2008; settings: mice; ref Marcinkiewicz et al., 2003; Brown et al., 2008; cited from earlier work
[11] = molecular target: integrin α1β1 on stably transfected C2C12 cells (human | mouse (endogenous in C2C12)) (UniProt P56199); assay: static cell adhesion assay; inhibition by obtustatin (dose curve) of the adhesion of integrin-expressing cells to coated GFOGER; 1 h at RT, serum-free medium, 5 mM MgCl2; three-parameter dose-response fit
[12] = molecular target: integrin α1β1 on stably transfected C2C12 cells (human | mouse (endogenous in C2C12)) (UniProt P56199); assay: static cell adhesion assay; inhibition by obtustatin (dose curve) of the adhesion of integrin-expressing cells to coated GLOGEN; 1 h at RT, serum-free medium, 5 mM MgCl2; three-parameter dose-response fit

T3 sequence (Q9UKX5 23-1188): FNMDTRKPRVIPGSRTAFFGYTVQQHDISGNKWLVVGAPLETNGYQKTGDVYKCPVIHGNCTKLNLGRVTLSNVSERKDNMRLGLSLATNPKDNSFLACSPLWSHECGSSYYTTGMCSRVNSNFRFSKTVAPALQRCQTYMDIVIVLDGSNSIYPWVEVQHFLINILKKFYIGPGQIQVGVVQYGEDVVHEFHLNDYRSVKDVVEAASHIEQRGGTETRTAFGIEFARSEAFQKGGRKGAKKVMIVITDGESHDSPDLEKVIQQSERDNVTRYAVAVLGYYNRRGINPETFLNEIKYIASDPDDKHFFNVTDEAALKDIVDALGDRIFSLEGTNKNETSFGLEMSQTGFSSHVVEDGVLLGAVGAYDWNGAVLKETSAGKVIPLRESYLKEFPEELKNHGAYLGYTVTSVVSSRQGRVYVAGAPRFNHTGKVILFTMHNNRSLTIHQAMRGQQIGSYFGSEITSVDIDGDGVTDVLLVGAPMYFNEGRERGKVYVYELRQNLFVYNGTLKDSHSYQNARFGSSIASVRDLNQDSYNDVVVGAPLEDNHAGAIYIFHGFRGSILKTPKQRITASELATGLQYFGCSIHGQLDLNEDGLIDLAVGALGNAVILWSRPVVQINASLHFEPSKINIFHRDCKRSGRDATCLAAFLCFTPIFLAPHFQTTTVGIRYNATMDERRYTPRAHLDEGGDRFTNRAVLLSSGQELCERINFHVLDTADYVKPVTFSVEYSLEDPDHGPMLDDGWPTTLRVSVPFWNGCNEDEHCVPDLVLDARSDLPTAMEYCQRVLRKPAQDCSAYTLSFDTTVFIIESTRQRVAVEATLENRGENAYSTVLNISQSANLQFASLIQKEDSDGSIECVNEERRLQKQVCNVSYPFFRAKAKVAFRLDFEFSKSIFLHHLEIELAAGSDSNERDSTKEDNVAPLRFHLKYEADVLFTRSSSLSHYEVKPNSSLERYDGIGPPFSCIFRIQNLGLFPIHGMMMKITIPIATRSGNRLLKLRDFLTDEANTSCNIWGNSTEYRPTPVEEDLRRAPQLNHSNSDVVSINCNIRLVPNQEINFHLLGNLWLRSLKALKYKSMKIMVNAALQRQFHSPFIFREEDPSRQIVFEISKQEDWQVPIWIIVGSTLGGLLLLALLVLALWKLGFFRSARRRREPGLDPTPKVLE
T3 sequence (P09055 21-798): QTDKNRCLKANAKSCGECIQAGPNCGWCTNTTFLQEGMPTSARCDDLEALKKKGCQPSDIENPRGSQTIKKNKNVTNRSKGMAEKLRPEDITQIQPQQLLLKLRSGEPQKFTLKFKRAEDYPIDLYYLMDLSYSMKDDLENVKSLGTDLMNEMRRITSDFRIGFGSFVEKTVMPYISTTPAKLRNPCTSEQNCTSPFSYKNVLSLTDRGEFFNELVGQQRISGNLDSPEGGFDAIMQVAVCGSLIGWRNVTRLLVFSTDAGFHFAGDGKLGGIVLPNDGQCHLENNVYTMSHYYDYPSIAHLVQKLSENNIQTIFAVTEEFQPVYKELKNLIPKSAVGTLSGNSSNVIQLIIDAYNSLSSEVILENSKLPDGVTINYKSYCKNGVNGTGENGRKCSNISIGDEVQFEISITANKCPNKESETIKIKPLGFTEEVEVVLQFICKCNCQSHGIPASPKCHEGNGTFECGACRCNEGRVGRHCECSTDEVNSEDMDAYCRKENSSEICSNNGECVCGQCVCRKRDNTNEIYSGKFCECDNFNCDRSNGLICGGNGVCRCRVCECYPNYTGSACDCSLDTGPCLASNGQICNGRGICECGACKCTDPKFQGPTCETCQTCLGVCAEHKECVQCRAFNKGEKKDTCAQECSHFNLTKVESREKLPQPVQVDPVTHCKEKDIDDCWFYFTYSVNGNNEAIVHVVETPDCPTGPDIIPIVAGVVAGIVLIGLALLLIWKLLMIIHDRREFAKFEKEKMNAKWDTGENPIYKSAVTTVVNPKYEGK
Sequence of integrin α1β1 on stably transfected C2C12 cells (human | mouse (endogenous in C2C12)) (P56199 29-1179, chain 1 of 2): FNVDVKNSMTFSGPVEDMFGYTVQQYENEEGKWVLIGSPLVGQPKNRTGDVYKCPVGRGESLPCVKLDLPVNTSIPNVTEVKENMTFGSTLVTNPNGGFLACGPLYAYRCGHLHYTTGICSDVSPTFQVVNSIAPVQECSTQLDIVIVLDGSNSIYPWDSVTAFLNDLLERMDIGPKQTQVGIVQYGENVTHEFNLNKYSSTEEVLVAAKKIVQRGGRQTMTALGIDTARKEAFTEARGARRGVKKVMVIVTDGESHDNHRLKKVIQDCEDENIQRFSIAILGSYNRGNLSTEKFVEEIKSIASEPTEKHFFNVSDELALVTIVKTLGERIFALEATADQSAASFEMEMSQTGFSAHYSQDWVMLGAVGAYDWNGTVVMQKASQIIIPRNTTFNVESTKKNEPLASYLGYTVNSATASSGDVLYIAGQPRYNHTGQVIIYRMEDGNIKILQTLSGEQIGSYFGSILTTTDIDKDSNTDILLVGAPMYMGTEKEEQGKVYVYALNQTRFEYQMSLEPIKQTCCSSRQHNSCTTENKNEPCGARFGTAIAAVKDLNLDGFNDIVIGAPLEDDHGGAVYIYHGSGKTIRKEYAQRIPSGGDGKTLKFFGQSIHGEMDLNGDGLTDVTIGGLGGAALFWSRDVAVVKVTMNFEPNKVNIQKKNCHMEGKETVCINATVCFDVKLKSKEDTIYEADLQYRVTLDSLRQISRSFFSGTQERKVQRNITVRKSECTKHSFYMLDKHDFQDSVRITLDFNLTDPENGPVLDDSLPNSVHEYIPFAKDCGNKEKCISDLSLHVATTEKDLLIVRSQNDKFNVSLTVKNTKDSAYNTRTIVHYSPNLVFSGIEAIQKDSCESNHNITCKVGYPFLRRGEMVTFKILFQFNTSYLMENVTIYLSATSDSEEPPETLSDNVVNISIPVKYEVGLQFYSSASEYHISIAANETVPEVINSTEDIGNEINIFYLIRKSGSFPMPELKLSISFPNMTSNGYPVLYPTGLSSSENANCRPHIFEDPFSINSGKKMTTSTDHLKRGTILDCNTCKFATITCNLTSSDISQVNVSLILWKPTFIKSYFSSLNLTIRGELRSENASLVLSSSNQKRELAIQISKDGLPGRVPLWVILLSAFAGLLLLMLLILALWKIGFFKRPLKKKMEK
Sequence of integrin α1β1 on stably transfected C2C12 cells (human | mouse (endogenous in C2C12)) (P09055 21-798, chain 2 of 2, further chain): as the sequence (P09055 21-798) above
T2 sequence (O75578 23-1167): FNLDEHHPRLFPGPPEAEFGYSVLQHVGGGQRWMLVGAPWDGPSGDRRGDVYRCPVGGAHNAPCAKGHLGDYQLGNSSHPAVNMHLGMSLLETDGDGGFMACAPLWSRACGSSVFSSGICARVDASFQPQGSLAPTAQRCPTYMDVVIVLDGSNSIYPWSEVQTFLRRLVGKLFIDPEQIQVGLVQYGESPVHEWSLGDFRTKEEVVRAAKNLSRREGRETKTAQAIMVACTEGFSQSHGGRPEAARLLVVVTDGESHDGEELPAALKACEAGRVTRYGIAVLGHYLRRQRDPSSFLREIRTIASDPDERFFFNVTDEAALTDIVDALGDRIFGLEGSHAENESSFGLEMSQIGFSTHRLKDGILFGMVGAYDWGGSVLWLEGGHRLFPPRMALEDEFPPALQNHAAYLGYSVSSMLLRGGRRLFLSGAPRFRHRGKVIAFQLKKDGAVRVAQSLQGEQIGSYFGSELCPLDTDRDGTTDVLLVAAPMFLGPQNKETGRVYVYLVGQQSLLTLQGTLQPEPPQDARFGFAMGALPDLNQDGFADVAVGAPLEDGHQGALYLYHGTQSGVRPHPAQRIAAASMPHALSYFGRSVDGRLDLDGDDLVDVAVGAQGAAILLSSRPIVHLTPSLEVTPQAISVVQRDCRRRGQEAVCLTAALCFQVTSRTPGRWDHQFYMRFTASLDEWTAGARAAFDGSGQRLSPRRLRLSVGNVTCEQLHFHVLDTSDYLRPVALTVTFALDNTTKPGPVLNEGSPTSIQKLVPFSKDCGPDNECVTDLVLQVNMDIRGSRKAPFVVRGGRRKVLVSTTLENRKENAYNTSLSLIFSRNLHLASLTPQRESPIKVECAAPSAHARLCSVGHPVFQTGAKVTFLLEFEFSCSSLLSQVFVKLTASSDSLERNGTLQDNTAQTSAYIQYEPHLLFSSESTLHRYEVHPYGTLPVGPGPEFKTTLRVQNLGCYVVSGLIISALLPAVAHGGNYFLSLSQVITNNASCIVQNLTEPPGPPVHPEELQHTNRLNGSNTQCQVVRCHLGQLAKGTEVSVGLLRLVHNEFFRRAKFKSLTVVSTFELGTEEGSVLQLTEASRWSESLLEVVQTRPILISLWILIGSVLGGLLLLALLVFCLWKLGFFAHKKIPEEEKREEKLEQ
T2 sequence (P09055 21-798): as the sequence (P09055 21-798) above

| Molecule | Effect on α1 I-domain adhesion to GLOGEN [1] | Inhibition of α10β1-expressing C2C12 cell adhesion (dose curve) [2] | IC50 ([3]; C2C12-α11β1, GLOGEN coating, 5 mM MgCl2, 1 h RT, read-out: IC50, inhibition of α11β1-expressing C2C12 cell adhesion to GLOGEN) [µM] | Effect on constitutively active E318A mutation of α2β1 [4] | Effect on adhesion of platelets to fibronectin and fibrinogen [5] | Effect on α2 I-domain adhesion to GFOGER [6] | Inhibition of α2β1-expressing C2C12 cell adhesion (dose curve) [7] | Inhibition of α11β1-expressing C2C12 cell adhesion (dose curve) ([3]; C2C12-α11β1, GFOGER and GLOGEN coatings) | Effect on HT1080 adhesion to GFOGER [8] | Reduction of tumour development [9] [%] | Effect on melanoma growth [10] | IC50 [11] [nM] | IC50 [12] [nM] |
| --- | --- | --- | --- | --- | --- | --- | --- | --- | --- | --- | --- | --- | --- |
| CC1(C)SCN(S(=O)(=O)c2ccccc2)[C@@H]1C(=O)N[C@@H](CNC(=O)NCc1ccccc1)C(=O)O [TC-I-15] | unaffected | no inhibition was seen | 177 | no effect | no effect |  |  |  |  |  |  |  |  |
| CTTGPCCRQCKLKPAGTTCWKTSLTSHYCTGKSCDCPLYPG (disulfide 1-10, 6-29, 7-34, 19-36 (inferred)) [obtustatin] | unaffected | no inhibition was observed |  |  |  | unaffected | no inhibition was observed | no inhibition was observed | no effect | 50 | blocked melanoma growth |  |  |
| obtustatin (peptide) |  |  |  |  |  |  |  |  |  |  |  | 450 | 960 |

Reference: publication PMC8444087 (Toxicology and Applied Pharmacology, 2021)
